Results from US20230151046A1, “5-POSITION MODIFIED PYRIMIDINES” (Nuclera Nucleics Ltd., priority 2020, published 2023).

Experiments:
[1] = Stability of 5-position modified 2′-deoxycytidine nucleosides to nitrite solution (nitrite-mediated deamination), LC-MS time course; format: physicochemical
Experimental: A series of 5-position modified nucleosides were tested. Each was incubated at room temperature in 700 mM NaNO2, 1 M acetate buffer pH 5.5 and the stability assayed by LC-MS over a time course. […] Electron withdrawing substituents such as the fluoro or alkynyl substituents increase stability. Electron donating substituents such as methyl and hydroxymethyl decrease stability.
LC-MS was used to monitor nucleosides throughout a time course of incubation in 700 mM sodium nitrite at pH 5.5. Integration of UV chromatograms was performed, and the percentage of starting nucleoside plotted.
In addition to monitoring the persistence of the starting material UV peak, the deamination products can be monitored. Deamination products were identified by their mass signals and appearance under nitrite incubation (FIG. 5).

[2] = Stability test of 2′-deoxycytidine and 2′-deoxy-5-fluorocytidine to methoxylamine (1× ORS), LC/MS; format: physicochemical; settings: 1× ORS (methoxylamine, pH 5.5 acetate), room temperature (FIG. 9)
Experimental: Stability Test of 2′-Deoxycytidine and 2′-Deoxy-5-Fluorocytidine to methoxylamine Oxime removal solution buffer (2× ORS) was prepared from methyoxylamine hydrochloride (60 mg, 0.71 mmol), water (200 μL), pH 5.5 sodium acetate (200 μL) and 10 M sodium hydroxide (53.4 μL) and additional water (1.4 mL). A previously frozen sample of this buffer was further diluted with water by a factor of two to yield 1× ORS. Samples of 2′-deoxycytidine (˜0.5 mg) and 2′-deoxy-5-fluorocytidine (˜0.5 mg) were dissolved in 1 mL aliquots of the buffer. The samples were analysed by LC/MS immediately after making up the samples and at intervals while stored together at room temperature. Appearance of the reaction products 2′-deoxy-4(N)-methoxy cytidine (1) and 2′-deoxy-4(N)-methoxy-5-fluorocytidine (2) and a corresponding loss of starting material was observed. The corresponding loss of starting material relative to the reaction products is plotted on the graph below.
HPLC Method for LC/MS Analysis

Structure (SMILES): Nc1nc(=O)n([C@H]2C[C@H](O)[C@@H](CO)O2)cc1F [5-fluoro-2′-deoxycytidine]
- rate of nitrite-mediated deamination, fold lower than the canonical deoxycytidine analogue ([1]; 700 mM pH 5.5 nitrite, room temperature (FIG. 1)): 4 fold
- stability to methoxylamine treatment relative to canonical dC [2]: ~10 ×

Structure (SMILES): Cc1cn([C@H]2C[C@H](O)[C@@H](CO)O2)c(=O)nc1N [5-methyl-2′deoxycytidine, reference compound]
- rate of nitrite-mediated deamination, fold greater than the canonical deoxycytidine analogue ([1]; 700 mM pH 5.5 nitrite, room temperature (FIG. 2)): 2 fold

Structure (SMILES): CC#Cc1cn([C@H]2C[C@H](O)[C@@H](CO)O2)c(=O)nc1N [5-propynyl, 5-propynyl-2′-deoxycytidine]
- stability to nitrite solution (in words) ([1]; 700 mM NaNO2, 1 M acetate buffer pH 5.5, room temperature, relative to parent deoxycytidine): increased stability
